From the NIST ThermoML archive (doi:10.1021/je1000582) come the findings set out here.

This data set is described as follows: activity coefficient (dimensionless); of the first substance listed, at infinite dilution; xn = mol fraction of the nth substance listed. The conditions noted are these: 101 kPa, Liquid, Chromatography, x1 = 0.

Numbers after ± are expanded uncertainties.

As to `CCCC(C)=O` [pentan-2-one] + CCCC[n+]1cccc(C)c1.O=S(=O)([O-])C(F)(F)F, the activity coefficient reads like this: (318.15 K) 1.35 ± 0.09; (328.15 K) 1.36 ± 0.09; (338.15 K) 1.38 ± 0.09; (348.15 K) 1.39 ± 0.09; (358.15 K) 1.41 ± 0.09.
The corresponding values for `CCC(=O)CC` [pentan-3-one] + CCCC[n+]1cccc(C)c1.O=S(=O)([O-])C(F)(F)F are 1.39 ± 0.09, 1.42 ± 0.09, 1.44 ± 0.09, 1.46 ± 0.1 and 1.48 ± 0.1.
As for `CCCCC` [pentane] + CCCC[n+]1cccc(C)c1.O=S(=O)([O-])C(F)(F)F, the activity coefficient (308.15 K) stood at 18.5 ± 1.3; the activity coefficient (318.15 K) turned out to be 17.3 ± 1.2; the activity coefficient (328.15 K) turned out to be 16.4 ± 1.1; the activity coefficient (338.15 K) was 15.5 ± 1.1; the activity coefficient (348.15 K) stood at 14.8 ± 1; the activity coefficient (358.15 K) is 14.1 ± 1.
Turning to `CCCO` [propan-1-ol] + CCCC[n+]1cccc(C)c1.O=S(=O)([O-])C(F)(F)F, the activity coefficient is, setting by setting: (318.15 K) 1.11 ± 0.07; (328.15 K) 1.06 ± 0.07; (338.15 K) 1 ± 0.06; (348.15 K) 0.958 ± 0.06; (358.15 K) 0.919 ± 0.058.
Regarding `C1CCOC1` [tetrahydrofuran] + CCCC[n+]1cccc(C)c1.O=S(=O)([O-])C(F)(F)F, the activity coefficient came to 1.19 ± 0.08 (308.15 K); 1.2 ± 0.08 (318.15 K); 1.21 ± 0.08 (328.15 K); 1.23 ± 0.08 (338.15 K); 1.24 ± 0.08 (348.15 K); 1.25 ± 0.08 (358.15 K).
As for `c1ccsc1` [thiophene] + CCCC[n+]1cccc(C)c1.O=S(=O)([O-])C(F)(F)F, the activity coefficient was 0.898 ± 0.057 (318.15 K); 0.919 ± 0.058 (328.15 K); 0.937 ± 0.059 (338.15 K); 0.955 ± 0.06 (348.15 K); 0.972 ± 0.061 (358.15 K).
For `Cc1ccccc1` [toluene] + CCCC[n+]1cccc(C)c1.O=S(=O)([O-])C(F)(F)F the same measures were 1.76 ± 0.12, 1.79 ± 0.12, 1.82 ± 0.12, 1.85 ± 0.12 and 1.88 ± 0.13.
For `O` [water] + CCCC[n+]1cccc(C)c1.O=S(=O)([O-])C(F)(F)F the same measures were 0.89 ± 0.057, 0.857 ± 0.055, 0.82 ± 0.053, 0.789 ± 0.051 and 0.765 ± 0.05.
